Measured values published in ChEMBL document CHEMBL1132863, “Antioxidant function of phenethyl-5-bromo-pyridyl thiourea compounds with potent anti-HIV activity” (Bioorg Med Chem Lett, 2000).

What was measured:
[1] = Antioxidant activity was evaluated by measuring the inhibition of oxidation of ABTS to ABTS+ by metmyoglobin in the presence of H2O2.; type: functional
[2] = target: Human immunodeficiency virus type 1 reverse transcriptase (Human immunodeficiency virus 1, UniProt Q72547); test: Inhibition of recombinant HIV-1 reverse transcriptase
CCRF-CEM = test: The compound was evaluated for percent reduction of H2O2-induced H2DCFDA fluorescence in human CEM T-cells.; type: functional; parameters: concentration or dose not given beside the values
NALM-6 = test: The compound was evaluated for percent reduction of H2O2-induced H2DCFDA fluorescence in NALM-6-B-cells.; type: functional, Homo sapiens; parameters: concentration or dose not given beside the values

Compound	EC50 [1]	IC50 [2]	Reduction (CCRF-CEM)	Reduction (NALM-6)
CS/C(=N\CCc1ccccc1Cl)Nc1ccc(Br)cn1	> 1000 µM	> 100 µM	–	–
COc1ccc(CC/N=C(\S)Nc2ccc(Br)cn2)cc1	176 µM	0.9 µM	21.4%	0%
Clc1ccccc1CC/N=C(/Nc1ccc(Br)cn1)SCc1ccccc1	> 1000 µM	> 100 µM	–	–
COc1cccc(CC/N=C(\S)Nc2ccc(Br)cn2)c1	90 µM	0.4 µM	19.7%	30.4%
COc1ccc(OC)c(CC/N=C(/Nc2ccc(Br)cn2)SCc2ccccc2)c1	> 1000 µM	> 100 µM	–	–
Fc1ccccc1CC/N=C(/Nc1ccc(Br)cn1)SCc1ccccc1	> 1000 µM	> 100 µM	–	–
COc1ccc(OC)c(CCNC(=S)Nc2ccc(Br)cn2)c1	89 µM	–	29.4%	11.8%
Fc1ccc(CC/N=C(\S)Nc2ccc(Br)cn2)cc1	89 µM	–	13%	2%
Fc1ccccc1CC/N=C(\S)Nc1ccc(Br)cn1	109 µM	–	47%	–
S=C(NCCc1ccccc1)Nc1ccc(Br)cn1	98 µM	1.3 µM	32.1%	37.1%
COc1ccccc1CC/N=C(\S)Nc1ccc(Br)cn1	79 µM	1 µM	72.3%	94.2%
Fc1cccc(CC/N=C(\S)Nc2ccc(Br)cn2)c1	100 µM	–	45%	–
S=C(NCCc1ccccc1Cl)Nc1ccc(Br)cn1	75 µM	–	56.3%	32%
CCCOC(=O)c1cc(O)c(O)c(O)c1 [PROPYL GALLATE]	84 µM	–	–	–
Cc1cn([C@H]2C[C@H](N=[N+]=[N-])[C@@H](CO)O2)c(=O)[nH]c1=O [ZIDOVUDINE]	> 1000 µM	> 100 µM	–	–
VITAMIN E	377 µM	–	–	–
